Assay results from patent US20240294572A1, “Antimicrobial Peptides” (priority 2021, published 2024).
In brackets after ≈: the same amount, converted by molar mass. Read-outs that look alike come from different tables or passages of the source. Non-standard residues stand in square brackets, D forms with d. Residues, ends and D or L forms follow the SMILES beside them. *: point of attachment. Decanoyl = CCCCCCCCCC(=O)*

Experiments:
E. coli ATCC 25922 = format: cell-based
Method in brief: (§1)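 Broth microdilution after CLSI M07-A10, modified: 2-fold peptide dilutions plus log-phase bacteria diluted to 0.001 OD, incubated overnight at 37° C, absorbance read at 630 nm. Medium effects probed with varied pH, NaCl or human serum in TSB (control pH 7.4), with 10%, 50%, 100% TSB, and with MHB.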

S. aureus USA300 LAC = format: cell-based
Method in brief: as §1

[1] = system: Klebsiella pneumonia ATCC 13883; experiment: Antibacterial broth microdilution MIC; format: cell-based
Method in brief: (§2)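 Broth microdilution per CLSI M07-A10 with minor changes: 2-fold peptide dilutions plus log-phase bacteria (OD600 ~0.5) diluted to 0.001 OD, in TSB. Incubated overnight at 37 °C; growth read at 630 nm.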

[2] = system: human red blood cells (hRBCs); format: cell-based
Method in brief: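 Saline-washed human erythrocytes at 2% (v/v) incubated with peptides at various concentrations, 37° C, 1 hour. Haemoglobin release read at 545 nm in supernatant after centrifugation; 1% Triton X-100 = 100% lysis, PBS = 0%. HC50 is the peptide concentration giving 50% lysis; CSI = HC50/MIC against MRSA.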

S. aureus Mu50 = format: cell-based
Method in brief: as §2

S. aureus Newman = format: cell-based
Method in brief: as §2

S. aureus USA200 = format: cell-based
Method in brief: as §2

S. aureus USA400 = format: cell-based
Method in brief: as §2

[3] = system: trypsin, chymotrypsin, pancreas elastase, S. aureus V8 protease, and fungal proteinase K
Experimental: The peptide was incubated with various proteases in 10 mM PBS buffer (pH 7.4) at 37° C. for 24 hours. Aliquots (20 μL) of the reaction solutions were taken at 3 and 24 hours. The reaction was then stopped by mixing with 20 μL of 2×SDS loading buffer and boiling in a water bath for ˜10 minutes. For the SDS-PAGE analysis, 10 μL of each sample was loaded to the well of a 5% stacking/18% resolving tricine gel and run at a constant current of 35 mA. The gels were stained using Coomassie Brilliant Blue.

HaCaT cells = format: cell-based, human
Experimental: Peptides were assessed for potential cytotoxicity using HaCaT cells (Addexbio Technologies, CA). Briefly, cells were seeded at a density of 1×10^4 per well in a tissue culture 96-well plate. DMEM was supplemented with 10% fetal bovine serum (FBS) and incubated at 37° C. in a 5% CO2 atmosphere for 24 hours. Culture medium was aspirated and replaced with fresh serum free media. Cells were exposed to different concentrations of peptides for 1 hour at 37° C. in a 5% CO2 atmosphere. Post-incubation, the cells were washed and incubated with 100 μL of DMEM media containing 20 μL of MTS reagent for 2 hours at 37° C. Absorbance was read at 492 nm using a ChroMate® microplate reader (Awareness Technology, FL).

[4] = system: MCP-1, IL-17A, IL-10, TNF-α; experiment: Cytokine quantification in tissues surrounding catheters; format: in vivo, mice; settings: day 3 after peptide treatment
Experimental: The catheter-associated tissue homogenates/plasma samples stored at −80° C. were thawed to room temperature for the cytokines quantification using the BioLegend® individual mouse cytokine kit. The protocol for sample preparation and analysis was per the manufacturer manual. The samples were in duplicates with appropriate standards. The data are represented as mean±SD. Plots were generated using GraphPad prism 7, where * indicates p<0.05, **p<0.01, ***p<0.001, and NS means no significance (nonparametric, unpaired, Mann-Whitney test).

[5] = system: S. aureus JE2 (SAUSA300, wild type); format: cell-based; settings: JE2 (SA, wild type)
Experimental: (§3) The antimicrobial susceptibility of over 20 MRSA transposon mutants were also tested, based on a transposon library screening, in the presence of LL-37 peptides (Golla, et al. (2020) ACS Infect. Dis., 6:1866-1881). This Nebraska Transposon Mutant Library of S. aureus USA300 consists of 1920 mutants, each with one nonessential gene disabled due to a transposon insertion (Fey, et al. (2013) mBio 4:e00537-12). The correct insertion of the transposon to each Staph mutant had been verified (Golla, et al. (2020) ACS Infect. Dis., 6:1866-1881). Antimicrobial susceptibility to the new peptide C10-KR8d was evaluated in the same manner as MIC assays. Susceptible strains could be inhibited at a peptide concentration lower than the MIC against the wild strain S. aureus JE2.

[6] = system: S. aureus USA300 transposon mutant SAUSA300_1228 (thrB); format: cell-based
Experimental: as §3

[7] = system: S. aureus USA300 transposon mutant SAUSA300_1515; format: cell-based
Experimental: as §3

`CCCCCCCCCC(=O)N[C@@H](CCCCN)C(=O)N[C@@H](CCCNC(=N)N)C(=O)N[C@H](C(=O)N[C@@H](Cc1c[nH]c2ccccc12)C(=O)N[C@@H](CCC(N)=O)C(=O)N[C@@H](CCCNC(=N)N)C(=O)N[C@H](C(=O)N[C@@H](CCCCN)C(N)=O)[C@@H](C)CC)[C@@H](C)CC` [Peptide C10-KR8] (Decanoyl-KRIWQRIK-NH2) was tested, and the “MIC (μM) EC” value (E. coli ATCC 25922) was 12.5 µM (≈ 16 µg/mL), the MIC in the presence of 5 or 10% human serum (S. aureus USA300 LAC; 5 or 10% human serum) was greater than 25 µM and the “MIC (μM) SA” value (S. aureus USA300 LAC; USA300) was 1.5 to 3.1 µM. For the same molecule, the “Minimal inhibitory concentration (MIC), pH = 6.8” value (S. aureus USA300 LAC; USA300, pH 6.8) was 3.1-6.2 μM, the “MIC (μM) KP” value [1] was 50 µM (≈ 64 µg/mL) and the “HC50” value [2] was 300 µM. The “Minimal inhibitory concentration, Mu50” value (S. aureus Mu50) was 3.1 µM (≈ 3.97 µg/mL), the “Minimal inhibitory concentration, Newman” value (S. aureus Newman) was 3.1 µM (≈ 3.97 µg/mL) and the “Minimal inhibitory concentration, USA200” value (S. aureus USA200) was 3.1 µM (≈ 3.97 µg/mL). The “Minimal inhibitory concentration, USA400” value (S. aureus USA400) was 3.1 µM (≈ 3.97 µg/mL) and the “time to degradation by proteases” value ([3]; nearly all the cases, except for S. aureus V8 protease, 37° C., PBS pH 7.4) was no more than 3 h.

`CCCCCCCCCC(=O)N[C@H](CCCCN)C(=O)N[C@H](CCCNC(=N)N)C(=O)N[C@@H](C(=O)N[C@H](Cc1c[nH]c2ccccc12)C(=O)N[C@H](CCC(N)=O)C(=O)N[C@H](CCCNC(=N)N)C(=O)N[C@@H](C(=O)N[C@H](CCCCN)C(N)=O)[C@H](C)CC)[C@H](C)CC` [Peptide C10-KR8d] (Decanoyl-[dK][dR][dI][dW][dQ][dR][dI][dK]-NH2) was tested, and the “MIC (μM) EC” value (E. coli ATCC 25922) was 12.5 µM (≈ 16 µg/mL), the “Minimal inhibitory concentration against E. coli, 100% TSB” value (E. coli ATCC 25922) was 6.2 µM (≈ 7.94 µg/mL) and the “reduction of anti-MRSA activity” value (S. aureus USA300 LAC; 10% serum, pH 7.4) was 2 fold. For the same molecule, the “MIC (μM) SA” value (S. aureus USA300 LAC; USA300) was 1.5 to 3.1 µM, the “MIC values (Table 4, text summary)” value (S. aureus USA300 LAC; USA300) was 3.1 to 6.2 µM and the “MIC (μM) KP” value [1] was 25 µM (≈ 32 µg/mL). For the same molecule, the “HC50” value ([2]; red cells of human, 1 h) was 300 µM, the “Minimal inhibitory concentration, Mu50” value (S. aureus Mu50) was 3.1 µM (≈ 3.97 µg/mL) and the “Minimal inhibitory concentration, Newman” value (S. aureus Newman) was 1.6 µM (≈ 2.05 µg/mL). For the same molecule, the “Minimal inhibitory concentration, USA200” value (S. aureus USA200) was 1.6 µM (≈ 2.05 µg/mL), the “Minimal inhibitory concentration, USA400” value (S. aureus USA400) was 1.6 µM (≈ 2.05 µg/mL) and the “relative toxicity to HaCaT cells” value (HaCaT cells) was “slightly more toxic than C10-KR8”. The “level of IL-10 in surrounding tissues of catheters” value [4] was “decrease”, the “level of IL-17A in surrounding tissues of catheters” value [4] was “up-regulation” and the “level of MCP-1/CCL2 in surrounding tissues of catheters” value [4] was “up-regulation”. For the same molecule, the “level of TNFα in surrounding tissues of catheters” value [4] was “decrease”, the “MIC” value [5] was 3.1 µM (≈ 3.97 µg/mL) and the “Susceptible?” value ([6]; mutant SAUSA300_1228 thrB versus WT) was “Yes”. For the same molecule, the “MIC” value ([6]; mutant SAUSA300_1228 thrB, 50% TSB) was 1.6 to 3.1 µM, the “MIC” value ([7]; mutant SAUSA300_1515, 50% TSB) was 1.6 to 3.1 µM and the “Susceptible?” value ([7]; mutant SAUSA300_1515 versus WT) was “Yes”. For the same molecule, the “stability to five proteases” value ([3]; trypsin, chymotrypsin, pancreas elastase, S. aureus V8 protease, fungal proteinase K, 3 and 24 hours) was “resistant to the five proteases”.
